According to patent US11154479B1, “Methods of removing color from color-treated hair” (L'Oreal, priority 2020, dated 2021):
Where two headings read alike, the source gives them in different places.

Key:
[1] = Octanol/water partition coefficient (Log Pow) of direct dyes; assay type: physicochemical; settings: octanol/water partition coefficient of the dye
Text: Pow is the octanol/water partition coefficient, which can be defined as the ratio of the concentration of a solute, such as the direct dye in the present disclosure, in a water-saturated octanolic phase to its concentration in an octanol-saturated aqueous phase. The octanol/water partition coefficient is typically expressed in Logarithmic form.
There are several existing experimental methods by the Organisation for Economic Co-operation and Development (OECD) and Quantitative Structure-Property Relationship (QSPR) models available for Log Pow measurement or prediction. The experimental methods include: the ‘slow-stirring’ method (OECD Test No. 123), the high-performance liquid chromatography (HPLC) method (OECD Test No. 117), and shake flask methods (referred to in OECD Test No. 107).
Thus, partition coefficient of a dye may be calculated as follows: Log Pow=Log [(dye concentration in octanol)/(dye concentration in water)].
The Log Pow value of a direct dye can be positive, negative or neutral. The Log Pow values for some dyes follows in the below table.

[2] = Removal of HC Blue 15 from dyed hair swatches by organic salt solutions (ΔE, CIE L*a*b*); settings: HC Blue 15 dyed hair; for ΔE: soaked 30 minutes at 40° C., shampooed once
Protocol: (§1) Unless otherwise indicated, hair swatches were all treated using the same protocol. Specifically, 2 g dyed hair swatches are soaked in 80 g treatment solution in water for 30 minutes at 40° C., then the treated hair swatches are then shampooed/washed once (rinsing step) and blow-dried for evaluation.
(§2) Unless otherwise indicated, color removal performance is measured using CIE L* a* b* coordinates. ΔE is used to describe the color difference and is defined by the following equation: ΔE*ab=√{square root over ((L*2−L*1)^2+(a*2−a*1)^2+(b*2−b*1)^2)} where, L1*, a1; b1 are measured on freshly dyed hair L2*, a2, b2 are measured on the dyed hair treated by color remover systems. The higher ΔE values, the more efficient the color removal.
Hair swatches dyed with HC Blue 15 were treated with the organic salts at varying concentrations using the protocol described above.

[3] = Removal of Basic Red 51 from dyed hair swatches by organic salt solutions (ΔE); settings: 10% organic salt in water; Basic Red 51 dyed hair; soaked 30 minutes at 40° C.; water control 5.3
Protocol: as §1, §2
Hair swatches dyed with Basic Red 51 were treated with BMIM octylsulfate and TBuMA Cl, each at 10% concentration using the protocol described above. Basic Red 51 contains a quaternary moiety and has the structure below.

[4] = 10% organic salt in water; hydroxyanthraquinoneaminopropyl methyl morpholinium methosulfate dyed hair; 30 minutes at 40° C.; water control 2.9

Row | Molecule | Log Pow [1] | ΔE ([2]; 25% organic salt in water) | ΔE [3] | ΔE ([2]; 1% organic salt in water) | ΔE ([2]; 5% organic salt in water) | ΔE ([2]; 10% organic salt in water) | Concentration of organic salt from which the ΔE value increased significantly [2] | ΔE [4]
1 | COS(=O)(=O)[O-].C[N+]1(CCCNc2ccc(O)c3c2C(=O)c2ccccc2C3=O)CCOCC1 [Hydroxyanthraquinoneaminopropyl methyl morpholinium methosulfate] | around 2.89 |  |  |  |  |  |  | 
2 | CCCC[N+](C)(CCCC)CCCC.[Cl-] [TBuMA Cl, tributylmethyl ammonium chloride] |  | 32.8 | 23.1 |  |  |  |  | 
3 | butyl-3-methylimidazolium octyl sulfate [BMIM octyl sulfate] |  |  | 22.2 | 1.3 | 18.4 | 32.2 | about 5% | 39.1
